Results from BindingDB's records for doi:10.1021/jm500763m (Beijing Institute of Pharmacology & Toxicology, 2014).
Peptide text beside a SMILES is read from it. * marks the point of attachment. X5 = C=C(C)[C@@H]1CC[C@]2(C(=O)OCc3cn(CC(=O)*)nn3)CC[C@]3(C)[C@H](CC[C@@H]4[C@@]5(C)CC[C@H](OC(C)=O)C(C)(C)[C@@H]5CC[C@]43C)[C@@H]12; X4 = C=C(C)[C@@H]1CC[C@]2(C(=O)OCc3cn(CC(=O)*)nn3)CC[C@]3(C)[C@H](CC[C@@H]4[C@@]5(C)CC[C@H](O)C(C)(C)[C@@H]5CC[C@]43C)[C@@H]12; X6 = CC1(C)CC[C@]2(C(=O)O)CC[C@]3(C)C(=CC[C@@H]4[C@@]5(C)CC[C@H](OC(=O)CCc6cn(CC(=O)*)nn6)C(C)(C)[C@@H]5CC[C@]43C)[C@@H]2C1; βAla = NCCC(=O)O

Assay: Inhibition of HIV1 gp41-induced cell-cell fusion between viral envelope expressing human HL2/3 cells to CD4/CCR5 receptor expressing TZM-bl cells after 6 to 8 hrs by luciferase assay

Compound	EC50 [nM]
C=C(C)[C@@H]1CC[C@]2(C(=O)OCc3cn(CC(=O)NCCC(=O)N[C@@H](CC(N)=O)C(=O)N[C@@H](CC(N)=O)C(=O)N[C@@H](Cc4ccc(O)cc4)C(=O)N[C@H](C(=O)N[C@@H](CO)C(=O)N[C@@H](CC(C)C)C(=O)N[C@H](C(=O)N[C@@H](Cc4cnc[nH]4)C(=O)N[C@@H](CO)C(=O)N[C@@H](CC(C)C)C(=O)N[C@H](C(=O)N[C@@H](CCC(=O)O)C(=O)N[C@@H](CCC(=O)O)C(=O)N[C@@H](CO)C(=O)N[C@@H](CCC(N)=O)C(=O)N[C@@H](CC(N)=O)C(=O)N[C@@H](CCC(N)=O)C(=O)N[C@@H](CCC(N)=O)C(=O)N[C@@H](CCC(=O)O)C(=O)N[C@@H](CCCCN)C(=O)N[C@@H](CC(N)=O)C(=O)N[C@@H](CCC(=O)O)C(=O)N[C@@H](CCC(N)=O)C(=O)N[C@@H](CCC(=O)O)C(=O)N[C@@H](CC(C)C)C(=O)N[C@@H](CC(C)C)C(N)=O)[C@@H](C)CC)[C@@H](C)CC)[C@@H](C)O)nn3)CC[C@]3(C)[C@H](CC[C@@H]4[C@@]5(C)CC[C@H](O)C(C)(C)[C@@H]5CC[C@]43C)[C@@H]12 ({X4-βAla}-NNYTSLIHSLIEESQNQQEKNEQELL-NH2)	89
C=C(C)[C@@H]1CC[C@]2(C(=O)OCc3cn(CC(=O)NCCC(=O)N[C@@H](CC(N)=O)C(=O)N[C@@H](CC(N)=O)C(=O)N[C@@H](Cc4ccc(O)cc4)C(=O)N[C@H](C(=O)N[C@@H](CO)C(=O)N[C@@H](CC(C)C)C(=O)N[C@H](C(=O)N[C@@H](Cc4cnc[nH]4)C(=O)N[C@@H](CO)C(=O)N[C@@H](CC(C)C)C(=O)N[C@H](C(=O)N[C@@H](CCC(=O)O)C(=O)N[C@@H](CCC(=O)O)C(=O)N[C@@H](CO)C(=O)N[C@@H](CCC(N)=O)C(=O)N[C@@H](CC(N)=O)C(=O)N[C@@H](CCC(N)=O)C(=O)N[C@@H](CCC(N)=O)C(=O)N[C@@H](CCC(=O)O)C(=O)N[C@@H](CCCCN)C(=O)N[C@@H](CC(N)=O)C(=O)N[C@@H](CCC(=O)O)C(=O)N[C@@H](CCC(N)=O)C(=O)N[C@@H](CCC(=O)O)C(=O)N[C@@H](CC(C)C)C(=O)N[C@@H](CC(C)C)C(N)=O)[C@@H](C)CC)[C@@H](C)CC)[C@@H](C)O)nn3)CC[C@]3(C)[C@H](CC[C@@H]4[C@@]5(C)CC[C@H](OC(C)=O)C(C)(C)[C@@H]5CC[C@]43C)[C@@H]12 ({X5-βAla}-NNYTSLIHSLIEESQNQQEKNEQELL-NH2)	327
CC[C@H](C)[C@H](NC(=O)[C@H](CC(C)C)NC(=O)[C@H](CO)NC(=O)[C@H](Cc1cnc[nH]1)NC(=O)[C@@H](NC(=O)[C@H](CC(C)C)NC(=O)[C@H](CO)NC(=O)[C@@H](NC(=O)[C@H](Cc1ccc(O)cc1)NC(=O)[C@H](CC(N)=O)NC(=O)[C@H](CC(N)=O)NC(=O)CCNC(=O)Cn1cc(CCC(=O)O[C@H]2CC[C@]3(C)[C@H]4CC=C5[C@@H]6CC(C)(C)CC[C@]6(C(=O)O)CC[C@@]5(C)[C@]4(C)CC[C@H]3C2(C)C)nn1)[C@@H](C)O)[C@@H](C)CC)C(=O)N[C@@H](CCC(=O)O)C(=O)N[C@@H](CCC(=O)O)C(=O)N[C@@H](CO)C(=O)N[C@@H](CCC(N)=O)C(=O)N[C@@H](CC(N)=O)C(=O)N[C@@H](CCC(N)=O)C(=O)N[C@@H](CCC(N)=O)C(=O)N[C@@H](CCC(=O)O)C(=O)N[C@@H](CCCCN)C(=O)N[C@@H](CC(N)=O)C(=O)N[C@@H](CCC(=O)O)C(=O)N[C@@H](CCC(N)=O)C(=O)N[C@@H](CCC(=O)O)C(=O)N[C@@H](CC(C)C)C(=O)N[C@@H](CC(C)C)C(N)=O ({X6-βAla}-NNYTSLIHSLIEESQNQQEKNEQELL-NH2)	29
